Results: patent US10512667B2, “Compositions and methods for treating conditions related to adrenocortical activity and/or excessive steroid production” (The Regents of the University of Michigan, priority 2017, dated 2019)
Entries after “also recorded” stand apart in the source; their conditions may differ.

Columns and labels:
[1] = molecular target: T1, MDR1 (Homo sapiens, UniProt P08183); test: Doxorubicin accumulation / clearance in H295R cells; assay type: cell-based; conditions: 25 μM doxorubicin, 20 μM compound, 2 h
T1 construct: measured the accumulation of doxorubicin in H295R cells; endogenous in cells; host or cells: H295R adrenocortical carcinoma cells
Protocol: The medium was removed and immediately replaced with 100 μl of fresh media and intracellular doxorubicin fluorescence was visualized by fluorescence microscopy using a 20× objective.

[2] = system: H295R cells; test: Cellular ATP level (CellTiter-Glo); conditions: for ATP depletion at high concentrations of inhibitors of steroidogenesis: alone and in combination with ATR-101, 4 h; for ATP level in combination with ATR-101 versus separately: compound together with ATR-101 at concentrations not cytotoxic separately; for ATP level, compound alone: serum-free medium;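 on all read-outs here: ATP quantified by luminescence after lysing the cells in CellTiter-Glo reagent, with compound exposure at 37 °C under 5% CO2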
[3] = system: H295R cells; test: Visualization of cholesterol levels by filipin III binding; assay type: cell-based; conditions: for cholesterol level (filipin III binding), compound alone: serum-free medium containing apoA-I, 4 h
Protocol: The cells were seeded in 96-well ibiTreat μ-Plates and allowed to adhere for 48 h prior to the start of each experiment. Cholesterol was detected in fixed cells by incubating with 100 μg/ml filipin III at 37 C for 2 h. […] Images were captured using either a 4× or a 60× objective. Cholesterol esterification was visualized by culturing the cells with 1 μM NBD-cholesterol for 2 h following incubation with the indicated compounds. […] Images were captured using either a 20× or a 60× objective.
The medium was removed and immediately replaced with 100 μl of 4% paraformaldehyde and the cells were fixed at room temperature for 20 min. The cells were washed twice with 200 μl PBS. […] The fixed cells were incubated with filipin III at 37 C in the dark for 2 h.

[4] = system: H295R cells; test: Cortisol secretion (indirect ELISA); assay type: cell-based
Protocol: Cortisol secretion was measured by replacing the culture medium with fresh medium containing the indicated compounds. The medium was collected at the indicated times. The cortisol concentration in the medium was measured using indirect ELISA (Arbor Assays).
After 48 h, the medium was removed and replaced with 50 μl of fresh medium. After the indicated incubation time, aliquots of the supernatant ranging from 0.5 to 10 μl were diluted in 50 μl of medium were used to measure the amount of cortisol secreted. Cortisol detection and quantification were performed by indirect ELISA according to the manufacturer's protocol (Arbor Assays #K003).

[5] = system: H295R cells; test: Cholesterol efflux into serum-free medium with apoA1; assay type: cell-based; conditions: serum-free medium containing apoA-I
Protocol: Cholesterol efflux was measured by replacing the culture medium with serum-free medium supplemented with 5 μg/ml apoA1 (Sigma) and the indicated compounds. After the indicated time, the serum-free medium was collected, and the cholesterol concentration was measured using the fluorometric enzyme-linked assay (Cayman Chemical).
After 48 h, the medium was removed and replaced with 50 μl serum-free medium supplemented with 5 μg/mL apoA1. After the indicated time, the supernatant containing the effluxed cholesterol, was transferred to a new 96-well plate. A cholesterol detection reagent (Cayman Chemical) consisting of cholesterol assay buffer, cholesterol assay detector (10-acetyl-3,7-dihydroxyphenoxazine [ADHP]), horseradish peroxidase, cholesterol oxidase, and cholesterol esterase was added, and the reactions were incubated for 30 min at 37 C. The fluorescence intensities were measured using ex. […] 590 nm. The cholesterol concentrations were calculated by interpolation between the values produced by cholesterol standards that were analyzed in parallel.

[6] = H295R cells cultured with the compound together with ATR-101, 4 h
[7] = H295R cells, serum-free medium containing apoA-I, together with ATR-101

NC(=NCc1ccccc1)NC(=O)c1nc(Cl)c(N)nc1N [benzamil]
doxorubicin accumulation [1]: did not increase doxorubicin accumulation

CC(=O)N1CCN(c2ccc(OCC3COC(Cn4ccnc4)(c4ccc(Cl)cc4Cl)O3)cc2)CC1 (stereo not shown) [ketoconazole]
ATP depletion at high concentrations of inhibitors of steroidogenesis ([2]; H295R cells): enhanced ATP depletion

CCCCC/C=C\C/C=C\CCCCCCCC(=O)O[C@H]1CC[C@@]2(C)C(=CC[C@H]3[C@@H]4CC[C@H]([C@H](C)CCCC(C)C)[C@@]4(C)CC[C@@H]32)C1 [cholesterol linoleate]
effect on ATP depletion by ATR-101 ([2]; H295R cells cultured with the compound together with ATR-101, 24 h): did not prevent | effect on cholesterol accumulation caused by ATR-101 ([3]; H295R cells cultured with the compound together with ATR-101, 4 h or 24 h): did not prevent the accumulation of cellular cholesterol

Cc1c(C)c2c(c(C)c1O)CC[C@@](C)(CCC[C@H](C)CCC[C@H](C)CCCC(C)C)O2 [α-tocopherol]
effect on the inhibition of cortisol secretion by ATR-101 ([4]; 40 μM of the compound together with ATR-101, 4 h): neither compound prevented the inhibition of cortisol secretion | effect on ATP depletion by ATR-101 [2, 6]: restored normal or nearly normal ATP levels | effect on ATP depletion by ATR-101 [2, 7]: restored the ATP level | effect on the inhibition of cholesterol efflux by ATR-101 ([5]; together with ATR-101): did not restore cholesterol efflux

CC(=O)O[C@H]1CC[C@@]2(C)C(=CC[C@@H]3[C@@H]2CC[C@]2(C)C(c4cccnc4)=CC[C@@H]32)C1 [abiraterone acetate]
ATP depletion at high concentrations of inhibitors of steroidogenesis ([2]; H295R cells): enhanced ATP depletion

CC(C)CCC[C@@H](C)[C@H]1CC[C@H]2[C@@H]3CCC4=CC(=NO)CC[C@]4(C)[C@H]3CC[C@]12C [olesoxime]
effect on ATP depletion by ATR-101 [2, 6]: reduced ATP depletion by ATR-101 | effect on ATP depletion by ATR-101 [2, 7]: reduced ATP depletion by ATR-101 | effect on the inhibition of cholesterol efflux by ATR-101 ([5]; together with ATR-101, listed as Olesoxime): no detectable effect on the inhibition of cholesterol efflux

COc1ccc(Cl)cc1C(=O)NCCc1ccc(S(=O)(=O)NC(=O)NC2CCCCC2)cc1 [glibenclamide]
ATP level in combination with ATR-101 versus separately ([2]; H295R cells, 4 h): did not cause a larger than additive reduction in the ATP levels; also recorded: did not increase the efficiency of ATP depletion | ATP level, compound alone ([2]; H295R cells, 4 h): did not reduce the ATP level | cholesterol level (filipin III binding), compound alone ([3]; H295R cells): lack of cholesterol accumulation | cholesterol level (filipin III binding), compound alone ([3]; H295R cells, listed as Glibenclamide): did not cause cholesterol accumulation | cholesterol efflux, compound alone ([5]; 4 h): blocked cholesterol efflux

COc1ccc(CCN(C)CCCC(C#N)(c2ccc(OC)c(OC)c2)C(C)C)cc1OC (stereo not shown) [verapamil]
cortisol secretion, compound alone ([4]; cortisol in medium, 4 h or time course): inhibited cortisol secretion | ATP level, compound alone ([2]; H295R cells, 4 h): did not reduce the ATP levels | cholesterol level (filipin III binding), compound alone ([3]; H295R cells): increased the level of cholesterol in intracellular membranes; also recorded: caused cholesterol accumulation

rhodamine-123
ATP level in combination with ATR-101 versus separately ([2]; H295R cells, 4 h): larger than additive reductions in the ATP levels | ATP level in combination with ATR-101 versus separately ([2]; H295R cells, 4 h, listed as rhodamine 123): caused ATP depletion at concentrations that did not deplete ATP individually | fold lower concentration that reduced the ATP level in combination than required separately ([2]; H295R cells, ATR-101 and rhodamine-123 in combination, 4 h): 5 fold

CCN(CC)CCO[C@H]1CC[C@@]2(C)C(=CC[C@@H]3[C@@H]2CC[C@]2(C)C(=O)CC[C@@H]32)C1 [U18666A, 3β-(2-diethylaminoethoxy)-5-androsten-17-one]
ATP level in combination with ATR-101 versus separately ([2]; H295R cells, 4 h): caused ATP depletion at concentrations that had no detectable effect on the ATP level separately | cholesterol accumulation in combination with ATR-101 versus separately ([3]; H295R cells, 20 μM ATR-101 with 5 μM benzamil (1 h) or 8 μM U18666A (serum-free)): greater than additive increase in cholesterol accumulation
